Measured values reported in US10562912B2 (C&C Research Laboratories, priority 2013, dated 2020).

Experiments:
Assay type in all cases: cell-based
DU-145 = experiment: Cell growth inhibition assay, prostate cancer cell line DU-145; settings: Homo sapiens, DU-145 prostate cancer cell line
Summary of the method: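 DU-145 and HCT116 cells were plated at 3,000 cells/well and SW626 at 5,000 cells/well, then treated with serially diluted compounds. After 72 to 96 hours at 37° C. under 5% CO2, viability was read by CellTiter-Glo luminescence against cell-free medium wells and 0.1% DMSO wells.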

HEL92.1.7 = experiment: Cell growth inhibition assay, blood cancer cell line HEL92.1.7; settings: Homo sapiens, HEL 92.1.7, HEL92.1.7 blood cancer cell line
Summary of the method: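 Cells were seeded at 3,000/well (HCT116, DU-145) or 5,000/well (SW626 and the others) and exposed to serial compound dilutions for 72 to 96 h at 37 °C under 5% CO2. Viability was read as CellTiter-Glo luminescence against 0.1% DMSO and cell-free wells.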

STAT3 = molecular target: T1, STAT3 (Homo sapiens, UniProt P40763); experiment: STAT3 reporter gene assay (luciferase), LNCaP stable cell line (pSTAT3-TA-luc), IL-6 stimulation
T1 construct: plasmid pSTAT3-TA-luc), which contains a stably operating STAT3 promoter; endogenous in cells
Summary of the method: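 LNCaP cells stably carrying pSTAT3-TA-luc, in RPMI1640 with 3% DCC-FBS, were treated with compound and then stimulated with 10 ng/mL IL-6 for 24–48 h at 37 °C. Luciferase activity was measured in lysates. A parallel plate measured viability by CellTiter-Glo, with stimulated 0.1% DMSO wells as the positive control.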

LNCaP = experiment: Cell growth inhibition assay, prostate cancer cell line LNCaP (medium with 10 ng/mL IL-6); settings: Homo sapiens, medium supplemented with 10 ng/mL of IL-6, 10,000 cells/well

T1 sequence (P40763 whole entry): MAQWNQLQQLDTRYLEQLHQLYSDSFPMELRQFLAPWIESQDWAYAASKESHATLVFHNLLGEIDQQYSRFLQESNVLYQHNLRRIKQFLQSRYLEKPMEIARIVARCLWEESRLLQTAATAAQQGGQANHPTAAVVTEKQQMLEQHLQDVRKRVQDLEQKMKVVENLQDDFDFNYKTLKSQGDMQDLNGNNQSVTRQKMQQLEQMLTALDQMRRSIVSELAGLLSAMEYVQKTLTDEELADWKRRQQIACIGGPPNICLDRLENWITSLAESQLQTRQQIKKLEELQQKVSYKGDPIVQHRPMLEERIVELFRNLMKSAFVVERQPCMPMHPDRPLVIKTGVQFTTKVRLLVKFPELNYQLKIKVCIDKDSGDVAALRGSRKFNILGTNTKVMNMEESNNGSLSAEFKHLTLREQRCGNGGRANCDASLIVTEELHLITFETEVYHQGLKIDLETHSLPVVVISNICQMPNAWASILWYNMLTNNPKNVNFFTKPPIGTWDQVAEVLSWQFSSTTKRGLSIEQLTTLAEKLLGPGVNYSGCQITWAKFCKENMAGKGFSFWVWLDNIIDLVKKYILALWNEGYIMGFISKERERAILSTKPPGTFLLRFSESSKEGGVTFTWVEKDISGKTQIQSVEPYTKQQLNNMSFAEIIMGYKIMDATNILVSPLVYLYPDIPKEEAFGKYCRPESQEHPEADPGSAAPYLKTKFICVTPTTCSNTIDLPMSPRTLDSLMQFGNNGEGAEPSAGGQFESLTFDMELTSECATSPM

IC50 (DU-145) [µM] | IC50 (HEL92.1.7) [µM] | IC50 (STAT3) [µM] | IC50 (LNCaP) [µM] | Structure (SMILES)
0.58 | > 1.1 | 2.06 | > 1.1 | CC(C)Oc1cc(OC(F)(F)F)cc(C(C)(C)c2cc(Cl)cc(NC(=O)c3cc4cc(N(CCN5CCOCC5)S(C)(=O)=O)c(F)cc4s3)c2)c1 [Example 217, N-(3-chloro-5-(2-(3-isopropoxy-5-(trifluoromethoxy)phenyl)propan-2-yl)phenyl)-6-fluoro-5-(N-(2-morpholinoethyl)methylsulfonamido)benzo[b]thiophene-2-carboxamide]
0.4 | 0.83 | 0.53 | 0.48 | COc1cc(OC(F)(F)F)cc(-c2cc(Cl)cc(NC(=O)c3cc4cc(NS(C)(=O)=O)ccc4s3)c2)c1 [Example 324, N-(5-chloro-3′-methoxy-5′-(trifluoromethoxy)-[1,1′-biphenyl]-3-yl)-5-(methylsulfonamido)benzo[b]thiophene-2-carboxamide]
0.011 | 0.049 | 0.028 | 0.021 | CS(=O)(=O)Nc1cc2cc(C(=O)Nc3cc(Cl)cc(-c4ccc(F)cc4F)c3)sc2cc1F [Example 322, N-(5-chloro-2′,4′-difluoro-[1,1′-biphenyl]-3-yl)-6-fluoro-5-(methylsulfonamido)benzo[b]thiophene-2-carboxamide]
0.3 | > 1.1 | 0.17 | 0.99 | CC(C)Oc1cc(OC(F)(F)F)cc(C(C)(C)c2cc(I)cc(NC(=O)c3sc4ccc(NS(C)(=O)=O)cc4c3I)c2)c1 [Example 214, 3-iodo-N-(3-iodo-5-(2-(3-isopropoxy-5-(trifluoromethoxy)phenyl)propan-2-yl)phenyl)-5-(methylsulfonamido)benzo[b]thiophene-2-carboxamide]
0.2 | 0.35 | 1.12 | 0.27 | CN(C)CCOc1cc(OC(F)(F)F)cc(C(C)(C)c2cc(Cl)cc(NC(=O)c3cc4cc(NS(C)(=O)=O)ccc4s3)c2)c1 [Example 94, N-(3-chloro-5-(2-(3-(2-(dimethylamino)ethoxy)-5-(trifluoromethoxy)phenyl)propan-2-yl)phenyl)-5-(methylsulfonamido)benzo[b]thiophene-2-carboxamide]
0.008 | 0.017 | 0.006 | 0.023 | CC(C)Oc1cc(OC(F)(F)F)cc(C(C)(C)c2cc(Cl)cc(NC(=O)c3cc4cc(NS(=O)(=O)C(C)C)ccc4s3)c2)c1 [Example 203, N-(3-chloro-5-(2-(3-isopropoxy-5-(trifluoromethoxy)phenyl)propan-2-yl)phenyl)-5-((1-methylethyl)sulfonamido)benzo[b]thiophene-2-carboxamide]
0.045 | 0.16 | 0.11 | 0.035 | CC(C)Oc1cc(OC(F)(F)F)cc(C(C)(C)c2cc(Cl)cc(NC(=O)c3cc4cc(NS(=O)(=O)N5CCOCC5)ccc4s3)c2)c1 [Example 103, N-(3-chloro-5-(2-(3-isopropoxy-5-(trifluoromethoxy)phenyl)propan-2-yl)phenyl)-5-(morpholine-4-sulfonamido)benzo[b]thiophene-2-carboxamide]
0.018 | 0.26 | 0.02 | 0.054 | Cn1cc(Cc2cc(OC(F)(F)C(F)F)cc(C(C)(C)c3cc(Cl)cc(NC(=O)c4cc5cc(NS(C)(=O)=O)ccc5s4)c3)c2)cn1 [Example 138, N-(3-chloro-5-(2-(3-((1-methyl-1H-pyrazol-4-yl)methyl)-5-(1,1,2,2-tetrafluoroethoxy)phenyl)propan-2-yl)phenyl)-5-(methylsulfonamido) benzo[b]thiophene-2-carboxamide]
0.064 | 0.26 | 0.1 | 0.14 | COc1cc(OC(F)(F)F)cc(-c2cc(Cl)cc(NC(=O)c3cc4cc(N(C)S(C)(=O)=O)c(F)cc4s3)c2)c1 [Example 326, N-(5-chloro-3′-methoxy-5′-(trifluoromethoxy)-[1,1′-biphenyl]-3-yl)-6-fluoro-5-(N-methylmethylsulfonamido)benzo[b]thiophene-2-carboxamide]
> 1.1 | 4.7 | 2.2 | 0.36 | CC(C)Oc1cc(OC(F)(F)F)cc(C(C)(C)c2cc(Cl)cc(NC(=O)c3cc4nc(NS(C)(=O)=O)cnc4s3)c2)c1 [Example 151, N-(3-chloro-5-(2-(3-isopropoxy-5-(trifluoromethoxy)phenyl)propan-2-yl)phenyl)-2-(methylsulfonamido)thieno[2,3-b]pyrazine-6-carboxamide]
0.009 | 0.091 | 0.016 | 0.028 | CC(C)(c1cc(Br)cc(NC(=O)c2cc3cc(NS(C)(=O)=O)ccc3s2)c1)c1cc(OC(F)(F)F)cc(OC(F)(F)C(F)F)c1 [Example 87, N-(3-bromo-5-(2-(3-(1,1,2,2-tetrafluoroethoxy)-5-(trifluoromethoxy)phenyl)propan-2-yl)phenyl)-5-(methylsulfonamido)benzo[b]thiophene-2-carboxamide]
0.06 | 0.16 | 0.067 | 0.04 | CC(C)Oc1cc(N2CCOCC2)cc(C(C)(C)c2cc(Cl)cc(NC(=O)c3cc4cc(NS(C)(=O)=O)ccc4s3)c2)c1 [Example 145, N-(3-chloro-5-(2-(3-isopropoxy-5-morpholinophenyl)propan-2-yl)phenyl)-5-(methylsulfonamido)benzo[b]thiophene-2-carboxamide]
0.13 | 0.65 | 0.083 | 0.24 | CS(=O)(=O)Nc1ccc2sc(C(=O)Nc3cc(Cl)cc(Oc4ccc(F)cc4F)c3)cc2c1 [Example 444, N-(3-chloro-5-(2,4-difluorophenoxy)phenyl)-5-(methylsulfonamido)benzo[b]thiophene-2-carboxamide]
> 1.1 | > 1.1 | 2.6 | 2.3 | CC(C)(c1cc[nH]c1)c1cc(Cl)cc(NC(=O)c2cc3cc(NS(C)(=O)=O)ccc3s2)c1 [Example 167, N-(3-(2-(1H-pyrrol-3-yl)propan-2-yl)-5-chlorophenyl)-5-(methylsulfonamido)benzo[b]thiophene-2-carboxamide]
0.038 | 0.007 | 0.053 | 0.034 | CC(C)Oc1cc(OC(F)(F)F)cc(C2(c3cc(Cl)cc(NC(=O)c4cc5cc(NS(C)(=O)=O)ccc5s4)c3)CC2)c1 [Example 431, N-(3-chloro-5-(1-(3-isopropoxy-5-(trifluoromethoxy)phenyl)cyclopropyl)phenyl)-5-(methylsulfonamido)benzo[b]thiophene-2-carboxamide]
0.11 | 0.34 | 0.055 | 0.15 | CC(C)Oc1cc(OC(F)(F)F)cc(C(C)(C)c2cc(Cl)cc(NC(=O)c3nc4cc(NS(C)(=O)=O)ccc4s3)c2)c1 [Example 81, N-(3-chloro-5-(2-(3-isopropoxy-5-(trifluoromethoxy)phenyl)propan-2-yl)phenyl)-5-(methylsulfonamido)benzo[d]thiazole-2-carboxamide]
0.15 | 0.68 | 0.65 | 0.34 | Cc1noc(C)c1S(=O)(=O)Nc1ccc2sc(C(=O)Nc3cc(Cl)cc(C(C)(C)c4cc(OC(C)C)cc(OC(F)(F)F)c4)c3)cc2c1 [Example 199, N-(3-chloro-5-(2-(3-isopropoxy-5-(trifluoromethoxy)phenyl)propan-2-yl)phenyl)-5-((3,5-dimethylisoxazole)-4-sulfonamido)benzo[b]thiophene-2-carboxamide]
> 1.1 | > 1.1 | 0.72 | 0.9 | CC(C)(c1cc(Cl)cc(NC(=O)c2cc3cc(NS(C)(=O)=O)ccc3s2)c1)N1CCCCC1 [Example 164, N-(3-chloro-5-(2-(piperidin-1-yl)propan-2-yl)phenyl)-5-(methylsulfonamido)benzo[b]thiophene-2-carboxamide]
0.034 | 0.082 | 0.041 | 0.088 | O=C(Nc1cc(Cl)cc(-c2ccc(F)cc2F)c1)c1cc2cc(NS(=O)(=O)C3CCOC3)ccc2s1 (stereo not shown) [Example 327, N-(5-chloro-2′,4′-difluoro-[1,1′-biphenyl]-3-yl)-5-((tetrahydrofuran)-3-sulfonamido)benzo[b]thiophene-2-carboxamide]
0.055 | 0.15 | 0.066 | 0.074 | CS(=O)(=O)Nc1ccc2sc(C(=O)Nc3cc(Cl)cc(Oc4ccc(Cl)cc4)c3)cc2c1 [Example 445, N-(3-chloro-5-(4-chlorophenoxy)phenyl)-5-(methylsulfonamido)benzo[b]thiophene-2-carboxamide]
0.15 | 0.39 | 0.15 | 0.1 | COc1ccc(C(C)(C)c2cc(Cl)cc(NC(=O)c3cc4cc(NS(C)(=O)=O)ccc4s3)c2)cc1OC [Example 153, N-(3-chloro-5-(2-(3,4-dimethoxyphenyl)propan-2-yl)phenyl)-5-(methylsulfonamido)benzo[b]thiophene-2-carboxamide]
0.017 | 0.1 | 0.067 | 0.071 | CC(C)Oc1cc(Cl)cc(C(C)(C)c2cc(Cl)cc(NC(=O)c3cc4cc(NS(C)(=O)=O)ccc4s3)c2)c1 [Example 92, N-(3-chloro-5-(2-(3-chloro-5-isopropoxyphenyl)propan-2-yl)phenyl)-5-(methylsulfonamido)benzo[b]thiophene-2-carboxamide]
